Measurements reported in patent publication US10029986B2, “Alkynyl pyridine-substituted amide compound and pesticide” (NISSAN CHEMICAL INDUSTRIES, LTD., priority 2014, dated 2018).

Experiments:
[1] = system: Botrytis cinerea; assay: Test on the preventive effect against cucumber gray mold (mycelium inoculation); assay type: in vivo; conditions: 48 h, test solution A 500 ppm, 5 ml per pot, cucumber cotyledon, agar block inoculation, 2 days at 20° C.
Summary of the method: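 Cucumber cotyledons (Sagami Hanjiro) were sprayed with 5 ml per pot of a 500 ppm dilution of a 20 wt % emulsifiable concentrate. Next day, mycelial agar plugs of Botrytis cinerea were placed on cotyledons, held humid at 20° C for 2 days. Lesion proportion gave the control value; duplicate.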

[2] = system: Asperaillus niger; assay: Test on the antifungal activity against Asperaillus niger; assay type: cell-based; conditions: 48 h; test solution B 100 ppm, 10 μl per well, 96 well plate, 25° C. dark, 2 days after treatment; read-out: efficacy (flora area ratio relative to non-treated well)
Summary of the method: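 Compounds at 100 ppm (diluted from DMSO stock in water) were added to potato dextrose 1% agar wells seeded with Aspergillus niger spores (10 spores/3 μl). Plates held at 25 °C in dark for 2 days. Efficacy (%) calculated from flora area ratio versus non-treated wells.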

[3] = system: Barber pole worm (Haemonchus contortus); assay: Insecticidal test against Barber pole worm (eggs, 96 well plate); assay type: in vivo; conditions: 96 h, test solution B 100 ppm, 10 μl per well, 25° C. dark, 4 days after treatment, read-out: efficacy (unhatched eggs and inactive larvae relative to non-treated)
Summary of the method: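 Haemonchus contortus eggs (about 10 per 3 μl) were placed on 1% potato dextrose agar in wells. Compound diluted from 1 wt % DMSO solutions to 100 ppm in water was added, and plates were held at 25° C. in the dark.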

[4] = system: Phaeosphaeria nodorum (Synonym: Septoria nodorum); assay: Test on the preventive effect against wheat glume blotch; assay type: in vivo; conditions: Parastagonospora nodorum, 144 h; test solution A 500 ppm, 5 ml per pot, wheat 1.3-leaf stage, 2 days inoculation chamber then 6 days at 20° C.
Summary of the method: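 Wheat (cv. Haruyutaka) at 1.3-leaf stage sprayed with compound at 500 ppm as diluted emulsifiable concentrate, then inoculated one day later with conidial suspension. Kept 2 days at 20° C and 100% RH, then 6 days in a greenhouse at 20° C. Control value derived from lesion proportion on inoculated leaves; duplicate.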

[5] = system: Blumeria graminis f. sp. tritici; assay: Test on the preventive effect against wheat powdery mildew; assay type: in vivo; conditions: 168 h, test solution A 500 ppm, 5 ml per pot, wheat 1.3-leaf stage, 7 days after inoculation
Summary of the method: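 Compounds formulated as 20 wt % emulsifiable concentrates and diluted with water to 500 ppm; 5 ml per pot applied to wheat (Norin 61) at the 1.3-leaf stage. Conidia inoculated one day later in a 20° C greenhouse; lesion proportion scored after 7 days as control value, in duplicate.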

[6] = system: Sclerotinia sclerotiorum; assay: Test on the preventive effect against cucumber stem rot; assay type: in vivo; conditions: 48 h, test solution A 500 ppm, 5 ml per pot, agar block inoculation, 2 days at 20° C.
Summary of the method: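 Cucumber (Sagami Hanjiro) at cotyledon stage sprayed with 5 ml/pot of 500 ppm compound from a 20 wt % emulsifiable concentrate, air-dried, then inoculated on seed leaves with agar blocks of S. sclerotiorum grown on PDA. Kept humid at 20° C for 2 days; lesion proportion scored and control value calculated, in duplicate.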

**Q.** With `COC(c1ncc(C#CC2CC2)cc1Cl)C(C)NC(=O)c1cccnc1C(F)F` (stereo not drawn) [3-021] as the compound, how does the pest or weed control at 500 µg/mL [1] read?
**A.** Its pest or weed control at 500 µg/mL is ≥ 70%.

**Q.** What about the inhibition of growth at 100 µg/mL [2] of the same compound?
**A.** Its inhibition of growth at 100 µg/mL is ≥ 50%.

**Q.** And the pest or weed control at 100 µg/mL [3]?
**A.** The pest or weed control at 100 µg/mL was ≥ 50%.

**Q.** What about the pest or weed control at 500 µg/mL [4] of the same compound?
**A.** The pest or weed control at 500 µg/mL was ≥ 70%.

**Q.** And the pest or weed control at 500 µg/mL [5]?
**A.** Its pest or weed control at 500 µg/mL is ≥ 70%.

**Q.** And the pest or weed control at 500 µg/mL [6]?
**A.** Its pest or weed control at 500 µg/mL is ≥ 70%.
